ChEMBL document CHEMBL1123573, “Design and synthesis of peptide derivatives of a 3-deoxy-D-manno-2-octulosonic acid (KDO) analogue as novel antibacterial agents acting upon lipopolysaccharide biosynthesis” (1987)
Values after ≈ are worked out from the molar mass of the structure shown.

Columns and labels:
Escherichia coli = experiment: In vitro testing for minimum inhibitory concentration against Escherichia coli ATCC 11303.; type: functional
Salmonella typhimurium [1] = experiment: In vitro testing for minimum inhibitory concentration against Salmonella Typhimurium LT2 168; type: functional, Salmonella enterica subsp. enterica serovar Typhimurium
Salmonella typhimurium [2] = experiment: In vitro testing for minimum inhibitory concentration against Salmonella Typhimurium SL 1102; type: functional, Salmonella enterica subsp. enterica serovar Typhimurium
[3] = Salmonella enterica subsp. enterica serovar Typhimurium

Molecule | MIC (Escherichia coli) [µM] | MIC (Salmonella typhimurium [1]; Salmonella enterica) [µM] | MIC (Salmonella typhimurium [2]; Salmonella enterica) [µM] | MIC (Salmonella typhimurium [1]; [3]) [µM] | MIC (Salmonella typhimurium [2]; [3]) [µM]
C[C@H](N)C(=O)N[C@@H](C)C(=O)NC[C@H](O)[C@H]1O[C@H](C(=O)O)C[C@@H](O)[C@H]1O | 4 (≈ 1.45 µg/mL) | 60 (≈ 21.8 µg/mL) | 4 (≈ 1.45 µg/mL) | – | –
GENTAMICIN | < 0.05 | – | – | < 0.05 | < 0.05
CSCCC(N)C(=O)NCC(O)C1OC(C(=O)O)CC(O)C1O (stereo not given) | > 2000 | > 2000 | > 2000 | – | –
CC1(C)S[C@@H]2[C@H](NC(=O)[C@H](N)c3ccccc3)C(=O)N2[C@H]1C(=O)O [AMPICILLIN] | 1 (≈ 0.349 µg/mL) | 0.3 (≈ 0.105 µg/mL) | 2 (≈ 0.699 µg/mL) | – | –
CC(N)C(=O)NCC(O)C1OC(C(=O)O)CC(O)C1O (stereo not given) | > 2000 | > 2000 | > 2000 | – | –
